In patent publication US20220041641A1, “QUATERNARY AMMONIUM SALTS AS INHIBITORS OF TRIMETHYLAMINE PRODUCTION” (Senda Biosciences, Inc., priority 2018, published 2022):
Where a name gives a salt, the structure may show the parent alone. Read-outs that look alike come from different tables or passages of the source.

Tests used:
[1] = biological target: CutC from Clostridium sporogenes (Clostridium sporogenes, UniProt A0AAE4Z0A8); assay: Cell-based assay for TMA production from a native producer (C. sporogenes); details: read-out: IC50 Whole cell C. sporogenes; d9-TMA from 1 mM d9-choline, 5 h, 37° C.; run once; value 10 given when no fit or % TMA remaining at 10 μM higher than 15%
CutC from Clostridium sporogenes, sequence (A0ABD6RTF0 entry or part of it): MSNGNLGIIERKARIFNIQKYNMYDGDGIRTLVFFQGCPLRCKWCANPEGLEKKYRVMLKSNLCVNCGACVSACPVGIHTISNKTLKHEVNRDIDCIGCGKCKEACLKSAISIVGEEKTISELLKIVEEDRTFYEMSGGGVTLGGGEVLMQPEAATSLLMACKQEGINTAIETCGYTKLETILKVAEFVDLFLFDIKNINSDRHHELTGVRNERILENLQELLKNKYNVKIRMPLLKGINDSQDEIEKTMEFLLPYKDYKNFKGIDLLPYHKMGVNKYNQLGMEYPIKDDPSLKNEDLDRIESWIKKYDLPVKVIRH
CutC from Clostridium sporogenes, sequence (A0AAE4Z0A8 entry or part of it): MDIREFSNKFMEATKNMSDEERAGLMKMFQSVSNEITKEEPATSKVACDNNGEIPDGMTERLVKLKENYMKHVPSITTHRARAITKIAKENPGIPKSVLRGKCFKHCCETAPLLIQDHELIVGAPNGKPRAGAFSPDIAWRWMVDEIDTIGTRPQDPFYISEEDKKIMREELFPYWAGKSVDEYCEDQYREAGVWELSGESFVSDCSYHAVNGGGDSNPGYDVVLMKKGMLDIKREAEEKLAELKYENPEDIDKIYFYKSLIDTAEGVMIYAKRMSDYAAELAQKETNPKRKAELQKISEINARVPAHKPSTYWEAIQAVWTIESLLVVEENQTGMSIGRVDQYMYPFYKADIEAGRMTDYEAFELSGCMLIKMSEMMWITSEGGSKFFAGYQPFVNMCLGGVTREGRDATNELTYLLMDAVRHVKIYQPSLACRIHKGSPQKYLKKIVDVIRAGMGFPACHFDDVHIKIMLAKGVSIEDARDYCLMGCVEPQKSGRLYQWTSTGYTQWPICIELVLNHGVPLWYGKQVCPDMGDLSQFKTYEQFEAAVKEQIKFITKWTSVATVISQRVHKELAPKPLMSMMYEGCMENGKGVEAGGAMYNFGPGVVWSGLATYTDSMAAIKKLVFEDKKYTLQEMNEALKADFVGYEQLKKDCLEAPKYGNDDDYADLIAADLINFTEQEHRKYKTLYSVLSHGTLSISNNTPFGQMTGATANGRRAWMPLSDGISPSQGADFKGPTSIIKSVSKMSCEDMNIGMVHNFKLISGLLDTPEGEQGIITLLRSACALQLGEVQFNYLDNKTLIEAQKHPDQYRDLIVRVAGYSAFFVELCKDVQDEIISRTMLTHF
Text: (§1) In each bacterium, CutC was modified into its activated form by a cognate activating enzyme, CutD (protein EDU36696.1 for C. sporogenes; protein WP_004249185.1 for P. mirabilis). […] Trimethylamine may subsequently be converted by human enzymes such as flavin monooxygenase 3 to trimethylamine N-oxide, which might be associated with negative health consequences in humans.
(§2) A compound's ability to inhibit CutC from Proteus mirabilis and C. sporogenes from converting choline into trimethylamine was tested in cells as described. A BHI blood plate was inoculated with a frozen stock of Proteus mirabilis or Clostridium sporogenes under anaerobic conditions. A single colony was isolated from the plate and inoculated into 5 mL BHI supplemented with 1 mM choline under anaerobic conditions. The liquid cultures were grown overnight at 37° C.
(§3) To prepare each sample, 300 μL of the saturated culture was then inoculated into a 30 mL dilution blank under anaerobic conditions. 1 mM (trimethyl-d9)-choline and a sufficient amount of a compound to obtain a final concentration of 10 μM were added to the inoculated dilution blank. […] The mixture was incubated at 37° C. for 5 h. […] After centrifugation, the samples were analyzed by LCMS to determine the amount of d9-TMA produced.

[2] = biological target: CutC from Proteus mirabilis (Proteus mirabilis, UniProt B4EYG1); assay: Cell-based assay for TMA production from a native producer (P. mirabilis)
CutC from Proteus mirabilis, sequence (B4EYG1 entry or part of it): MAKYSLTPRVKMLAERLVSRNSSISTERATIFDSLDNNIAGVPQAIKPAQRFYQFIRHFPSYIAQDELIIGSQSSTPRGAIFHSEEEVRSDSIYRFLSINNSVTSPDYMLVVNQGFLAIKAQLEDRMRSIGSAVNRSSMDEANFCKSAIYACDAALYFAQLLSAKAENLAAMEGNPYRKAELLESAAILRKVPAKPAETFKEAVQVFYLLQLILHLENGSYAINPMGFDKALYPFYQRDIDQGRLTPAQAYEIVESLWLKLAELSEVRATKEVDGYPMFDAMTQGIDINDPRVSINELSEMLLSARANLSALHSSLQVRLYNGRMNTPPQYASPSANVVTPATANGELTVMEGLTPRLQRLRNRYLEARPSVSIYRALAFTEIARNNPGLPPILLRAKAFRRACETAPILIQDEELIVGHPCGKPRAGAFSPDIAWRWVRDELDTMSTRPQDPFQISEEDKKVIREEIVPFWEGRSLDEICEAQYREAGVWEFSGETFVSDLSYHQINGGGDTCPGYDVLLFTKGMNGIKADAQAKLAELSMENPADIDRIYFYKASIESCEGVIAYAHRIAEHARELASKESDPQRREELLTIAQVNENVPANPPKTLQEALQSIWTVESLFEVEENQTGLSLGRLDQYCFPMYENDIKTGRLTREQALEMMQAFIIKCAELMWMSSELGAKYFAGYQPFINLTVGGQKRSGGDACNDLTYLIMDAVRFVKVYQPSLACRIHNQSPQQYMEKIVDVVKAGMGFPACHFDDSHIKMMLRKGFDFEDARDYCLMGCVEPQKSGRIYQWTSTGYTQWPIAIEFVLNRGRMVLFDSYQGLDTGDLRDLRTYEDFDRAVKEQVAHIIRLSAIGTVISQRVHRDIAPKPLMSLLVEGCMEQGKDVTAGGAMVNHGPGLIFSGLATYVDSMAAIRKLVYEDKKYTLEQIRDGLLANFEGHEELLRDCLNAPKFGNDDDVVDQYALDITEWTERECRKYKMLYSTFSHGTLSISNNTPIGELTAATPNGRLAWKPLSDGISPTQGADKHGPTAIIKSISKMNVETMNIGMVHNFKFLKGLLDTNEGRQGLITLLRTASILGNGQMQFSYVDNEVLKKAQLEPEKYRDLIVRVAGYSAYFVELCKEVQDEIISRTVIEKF
CutC from Proteus mirabilis, sequence (B4EYG0 entry or part of it, further chain): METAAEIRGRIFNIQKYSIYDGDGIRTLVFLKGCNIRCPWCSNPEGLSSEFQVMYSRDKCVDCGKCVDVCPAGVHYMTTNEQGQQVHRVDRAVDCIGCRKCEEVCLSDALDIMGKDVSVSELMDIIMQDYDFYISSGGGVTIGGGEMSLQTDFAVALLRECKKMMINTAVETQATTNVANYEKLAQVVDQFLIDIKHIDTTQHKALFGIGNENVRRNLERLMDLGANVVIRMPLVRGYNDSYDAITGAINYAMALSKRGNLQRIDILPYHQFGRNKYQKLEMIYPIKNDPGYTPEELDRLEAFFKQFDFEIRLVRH
Text: as §1, §2, §3

CutC/D enzyme = assay: Acute mouse model (plasma TMAO on choline diet); type: in vivo, male C57BL/6 mice
Description: The following acute mouse model may be used to determine inhibition of the CutC/D enzyme and thus the inhibition of the formation of trimethylamine (TMA) from choline.
On day 1, male C57BL/6 mice were given a chemically defined diet (Tekland Global Rodent Diet 2018) containing 1.0% choline (g/g) for the duration of the experiment. Concurrently on day 1, mice were orally gavaged with 200 μL of compounds of interest (formulated in water). Mice were orally gavaged with the compounds and vehicle control again on day 2 and day 3 at a fixed time. Twenty hours after the last gavage, mice were sacrificed, and plasma was collected and prepared for detection of trimethylamine-N-oxide (TMAO) via liquid chromatography with on-line tandem mass spectrometry (LC-MS/MS). Food consumption and mouse weight were measured each day.
Plasma samples were prepared for LCMS as follows: An aliquot of 20 μL plasma sample was protein precipitated with 200 μL internal standard solution (100 ng/mL Labetalol & 100 ng/mL Tolbutamide & 100 ng/mL Diclofenac in acetonitrile, the mixture was vortex-mixed and centrifuged at 4000 rpm for 15 min, 4° C. An aliquot of 100 μL supernatant was transferred to the sample plate for LCMS injection. 1 μL of sample was injected onto an LC column for TMAO LCMS analysis.
Concentrations of TMAO were determined with a calibration curve ranging 0.05-100 μM for d9-TMAO in control plasma.

[3] = d9-TMA from 1 mM d9-choline, 5 h, 37° C.; value 10 given when no fit or % TMA remaining at 10 μM higher than 15%; read-out: Average IC50 Whole cell P. mirabilis
[4] = Table 4d, 100 mg/kg oral gavage days 1-3
[5] = Table 4d, 100 mg/kg oral gavage days 1-3, plasma 20 h after last gavage
[6] = read-out: Average IC50 Whole cell P. mirabilis; d9-TMA from 1 mM d9-choline, 5 h, 37° C.; value 10 given when no fit or % TMA remaining at 10 μM higher than 15%

Row | SMILES | IC50 [1] | IC50 [2, 3] | further results
1 | C#CC[N+]1(C)CCC[C@H]1CO (stereo partly drawn) [Compound 108, (2S)-2-(hydroxymethyl)-1-methyl-1-(prop-2-yn-1-yl)pyrrolidin-1-ium bromide] | 2460 nM | 2190 nM | –
2 | C[N+]1(C)CC[C@@H](O)C1 [Compound 116, (R)-3-hydroxy-1,1-dimethylpyrrolidin-1-ium Iodide] | ≥ 10000 nM | ≥ 10000 nM | –
3 | C[N+](C)(C)CC#CCO [Compound 132, 4-hydroxy-N,N,N-trimethylbut-2-yn-1-aminium Chloride] | ≥ 10000 nM | ≥ 10000 nM | –
4 | C#CC[N+](C)(C)CCCC(=O)O [Compound 144, N-(3-carboxypropyl)-N,N-dimethylprop-2-yn-1-aminium Iodide] | 700 nM | 580 nM | –
5 | C#CC[N+](C)(C)CCCO [Compound 138, N-(3-hydroxypropyl)-N,N-dimethylprop-2-yn-1-aminium Trifluoroacetate] | 5350 nM | 1050 nM | –
6 | C#CC[N+](C)(C)CCCCOC1O[C@@H](C)[C@@H](OC(=O)CCC)[C@@H](OC(=O)CCC)[C@@H]1OC(=O)CCC.[Br-] (stereo partly drawn) [Compound 58, N,N-dimethyl-N-(prop-2-yn-1-yl)-4-(((3S,4R,5R,6S)-3,4,5-tris(butyryloxy)-6-methyltetrahydro-2H-pyran-2-yl)oxy)butan-1-aminium bromide] | – | – | % change from vehicle control + choline diet (CutC/D enzyme; Table 4d, 10 mg/kg oral gavage days 1-3): −46%; Mean plasma TMAO (CutC/D enzyme; Table 4d, 10 mg/kg oral gavage days 1-3, plasma 20 h after last gavage): 10.1 µM
7 | C#CC(C)[N+](C)(C)C (centres unmarked) [Compound 133] | 440 nM | 660 nM | –
8 | C#CCC[N+](C)(C)C [Compound 130] | ≥ 10000 nM | 3470 nM | –
9 | C#CC[N+](C)(C)CCOC1OC[C@@H](OC(C)=O)[C@@H](OC(C)=O)[C@H]1OC(C)=O.[Br-] (stereo partly drawn) [Compound 9, N,N-dimethyl-N-(2-(((3R,4R,5R)-3,4,5-triacetoxytetrahydro-2H-pyran-2-yl)oxy)ethyl)prop-2-yn-1-aminium bromide] | – | – | % change from vehicle control + choline diet (CutC/D enzyme; [4]): 80%; Mean plasma TMAO (CutC/D enzyme; [5]): 33.91 µM
10 | C[S+]([O-])C[N+](C)(C)C (centres unmarked) [Compound 140, (methanesulfinylmethyl)trimethylazanium Chloride] | ≥ 10000 nM | ≥ 10000 nM | –
11 | C[N+]1(CF)CCC[C@@H]1CO (stereo partly drawn) [Compound 151, (2R)-1-(fluoromethyl)-2-(hydroxymethyl)-1-methylpyrrolidin-1-ium Iodide] | – | 890 nM | % change from vehicle control + choline diet (CutC/D enzyme; Table 4g, 116 mg/kg oral gavage days 1-3): 6%; Mean plasma TMAO (CutC/D enzyme; Table 4g, 116 mg/kg oral gavage days 1-3, plasma 20 h after last gavage): 29.4 µM
12 | C[N+](C)(C)CCCP(=O)(O)O [Compound 143, N,N,N-trimethyl-3-phosphonopropan-1-aminium Trifluoroacetatetrifluoroacetatetrifluoroacetatetrifluoroacetatetrifluoroacetate] | ≥ 10000 nM | – | IC50 [2, 6]: ≥ 10000 nM
13 | C#CC1CC[N+](C)(C)C1 (centres unmarked) [Compound 137, 3-ethynyl-1,1-dimethylpyrrolidin-1-ium Iodide] | ≥ 10000 nM | ≥ 10000 nM | –
14 | C#CC[N+]1(C)CC[C@H](O)C1 (stereo partly drawn) [Compound 112, (3S)-3-hydroxy-1-methyl-1-(prop-2-yn-1-yl)pyrrolidin-1-ium bromide] | 280 nM | 550 nM | –
15 | C[N+]1(C)CCCC1COCc1ccccc1 (centres unmarked) [Compound 134, 2-[(benzyloxy)methyl]-1,1-dimethylpyrrolidin-1-ium Iodide] | ≥ 10000 nM | ≥ 10000 nM | –
16 | C[N+](C)(C)CCCC(=O)O [Compound 127, 3-carboxy-N,N,N-trimethylpropan-1-aminium Iodide] | ≥ 10000 nM | 5010 nM | –
17 | C[N+](C)(CCO)c1ccccc1 [Compound 145] | 1380 nM | ≥ 10000 nM | –

Row | SMILES | IC50 [1] | IC50 [2, 3] | further results
18 | C#CC[N+](C)(C)CC(=C)Cl.[Cl-] [Compound 185, (2-chloroprop-2-en-1-yl)dimethyl(prop-2-yn-1-yl)azanium Chloride] | – | 235 nM | % change from vehicle control + choline diet (CutC/D enzyme; Table 4e, 123.7 mg/kg oral gavage days 1-3): −16%; Mean plasma TMAO (CutC/D enzyme; Table 4e, 123.7 mg/kg oral gavage days 1-3, plasma 20 h after last gavage): 22.2 µM
19 | C#CC[N@@+]1(C)CCC[C@@H]1CO [Compound 129, (1R,2R)-2-(hydroxymethyl)-1-methyl-1-(prop-2-yn-1-yl)pyrrolidin-1-ium Bromide] | ≥ 10000 nM | ≥ 10000 nM | –
20 | C[N+]1(C)CC[C@H](O)C1 [Compound 117, (S)-3-hydroxy-1,1-dimethylpyrrolidin-1-ium Iodide] | ≥ 10000 nM | ≥ 10000 nM | –
21 | CC(=O)OC[C@H]1OC(OCC[N+](C)(C)C2CC2)[C@H](OC(C)=O)[C@@H](OC(C)=O)[C@@H]1OC(C)=O.[I-] (stereo partly drawn) [Compound 312, N,N-dimethyl-N-(2-(((3R,4S,5R,6R)-3,4,5-triacetoxy-6-(acetoxymethyl)tetrahydro-2H-pyran-2-yl)oxy)ethyl)cyclopropanaminium iodide] | – | – | % change from vehicle control + choline diet (CutC/D enzyme; Table 4d, 35.4 mg/kg oral gavage days 1-3): −38%; Mean plasma TMAO (CutC/D enzyme; Table 4d, 35.4 mg/kg oral gavage days 1-3, plasma 20 h after last gavage): 11.69 µM
22 | C#CC[N+]1(C)CC[C@@H](O)C1 (stereo partly drawn) [Compound 113, (3R)-3-hydroxy-1-methyl-1-(prop-2-yn-1-yl)pyrrolidin-1-ium bromide] | 1250 nM | 700 nM | –
23 | C[N+]1(CF)CC[C@H](O)C1 (stereo partly drawn) [Compound 114, (3S)-1-(fluoromethyl)-3-hydroxy-1-methylpyrrolidin-1-ium Iodide] | 1630 nM | 2080 nM | –
24 | C[N+]1(C)CCCC1CO (centres unmarked) [Compound 110, 2-(hydroxymethyl)-1,1-dimethylpyrrolidin-1-ium Iodide] | ≥ 10000 nM | ≥ 10000 nM | –
25 | C#CC[N+](C)(C)CCO[C@@H]1OC[C@H](OC(C)=O)[C@H](OC(C)=O)[C@H]1OC(C)=O.[I-] [Compound 10, N,N-dimethyl-N-(2-(((3R,4S,5S)-3,4,5-triacetoxytetrahydro-2H-pyran-2-yl)oxy)ethyl)prop-2-yn-1-aminium Iodide] | – | – | % change from vehicle control + choline diet (CutC/D enzyme; [4]): −21%; Mean plasma TMAO (CutC/D enzyme; [5]): 14.9 µM
26 | C#CC[N+](C)(C)CCCCC(=O)O [Compound A51, 4-carboxy-N,N-dimethyl-N-(prop-2-yn-1-yl)butan-1-aminium Bromide] | 930 nM | 1100 nM | –
27 | C[N+](C)(CF)CC(O)O [Compound 146] | 1500 nM | ≥ 10000 nM | –
28 | C#CCn1ccnc1 [Compound Z76, 1-(prop-2-yn-1-yl)-1H-imidazole] | ≥ 10000 nM | 4040 nM | –
29 | C[N+](C)(C)CCNC=O [Compound 128] | ≥ 10000 nM | ≥ 10000 nM | –
30 | C#CC[N+](C)(C)C[C@H](C)C(=O)OC [Compound 175, [(2S)-3-methoxy-2-methyl-3-oxopropyl]dimethyl(prop-2-yn-1-yl)azanium] | – | 170 nM | –
31 | C[N+](C)(CCO)CCCl [Compound 198, (2-chloroethyl)(2-hydroxyethyl)dimethylazanium Iodide] | – | – | IC50 [2, 6]: > 10000 nM
32 | C#CC[N+](C)(C)CC(=O)O[C@H]1O[C@H](COC(C)=O)[C@@H](OC(C)=O)[C@H](OC(C)=O)[C@H]1OC(C)=O.O=C([O-])C(F)(F)F [Compound 19, N,N-dimethyl-N-(2-oxo-2-(((2R,3R,4S,5R,6R)-3,4,5-triacetoxy-6-(acetoxymethyl)tetrahydro-2H-pyran-2-yl)oxy)ethyl)prop-2-yn-1-aminium trifluoroacetate] | – | 1730 nM | % change from vehicle control + choline diet (CutC/D enzyme; Table 4a, 333 mg/kg oral gavage days 1-3): −84.29%; Mean plasma TMAO (CutC/D enzyme; Table 4a, 333 mg/kg oral gavage days 1-3, plasma 20 h after last gavage): 5.40 µM
33 | C[N+]1(CF)CC[C@@H](O)C1 (stereo partly drawn) [Compound 115, (3R)-1-(fluoromethyl)-3-hydroxy-1-methylpyrrolidin-1-ium Iodide] | 9850 nM | 2070 nM | –
34 | C#CC[N+]1(CF)CCCCC1 [Compound 164, 1-(fluoromethyl)-1-(prop-2-yn-1-yl)piperidin-1-ium Iodide] | – | ≥ 10000 nM | –
